Assay results reported in US7771712B2, “Composition for attracting blood sucking arthropods and fruit flies” (priority 2002, dated 2010).

System: female A. aegypti
Test: Y-tube olfactometer, single compound added to index finger scent against pure finger
Type: in vivo, Aedes aegypti
Protocol: In this example, the effect of adding certain compounds to the scent of a finger of a human volunteer was tested, using the set-up as described for example 1. The right and left index finger of each test person were tested in direct competition with simultaneous addition of a single compound to one finger; Martina (A) is highly, Martin (B) medium, and Doris (C) low attractive. The test components were alternately added to the right or to the left finger, respectively. Bars (means of 16 trials±S.E.M.) represent the percentage of mosquitoes trapped in the respective upwind chamber. Black bars represent the pure finger, white bars the mixture of finger plus the odor stimulus indicated below the bar; stimulus labels as described in FIG. 3A; asterisks indicate a significant preference (P<0.05, t-test for paired samples).
A) is a top view of the olfactometer for testing mosquitoes' odour preference. The spatial distribution of odourants in the air are outlined according to the appearance of TiCl4 smoke, which was injected into the olfactometer instead of the odour stimulus. In the arms of the olfactometer the smoke was homogeneous distributed^20. More turbulent odour eddies and filaments emerged in the rectangular chamber, although a steep gradient between both air streams can still be observed in the joined straight tube. For each test, 20 female A. aegypti mosquitoes were used from cultures of Bayer AG in Monheim, 5-15 days old, which had no blood meal before. Details of the olfactometer and the experimental procedure are described elsewhere (Geier, M. & Boeckh, J. Entomol. exp. appl. 92, 9-19 (1999); Geier, M., Bosch, O. J. & Boeckh, J. Chem. Sens. 24, 647-653 (1999)).
At stimulus onset, 20 mosquitoes in the start chamber are set free to fly through the olfactometer. During their zig zag flight through the straight tube they encounter alternately air streams from either arm. Following the favoured air stream during upwind flight the mosquitoes enter the respective upwind chamber where they are counted 30 s after stimulus onset. […]

Compound: N [Ammonia+100, Ammonia]
- Attractiveness of finger scent plus compound against pure finger (FIG. 4 A, highly attractive person): less attractive

Compound: CC(=O)O [acetic acid, Acetic acid]
- Attractiveness of finger scent plus compound against pure finger (up to 50-fold higher concentration than in the standard blend, any of the persons): did not change the attractiveness

Compound: CCCCCC(=O)O [capronic acid, Caproic acid]
- Attractiveness of finger scent plus compound against pure finger (FIG. 4 C, low attractive person, all concentrations): more attractive
